Measured values: PMC9736855, “Discovery of 3-Amino-1H-pyrazole-Based Kinase Inhibitors to Illuminate the Understudied PCTAIRE Family” (International Journal of Molecular Sciences, 2022)

Columns and labels:
[1] = molecular target: T1, MST3 (Homo sapiens, UniProt Q9Y6E0); assay: DSF; assay type: binding
T1 construct: purchased in-house DSF panel (SGC Frankfurt)
Method: Recombinant protein kinase domains with a concentration of 2 μM were mixed with a 10 μM compound solution in DMSO, 20 mM HEPES, pH 7.5, and 500 mM NaCl. SYPRO Orange (5000×, Invitrogen) was added as a fluorescence probe (1 µl per mL). Subsequently, temperature-dependent protein unfolding profiles were measured, using the QuantStudio™ 5 realtime PCR machine (Thermo Fisher, Waltham, MA, USA). […] The temperature was raised with a step rate of 3 °C per minute. Data points were analyzed with the internal software (Thermal Shift SoftwareTM Version 1.4, Thermo Fisher) using the Boltzmann equation to determine the inflection point of the transition curve [56]. Differences in melting temperature are given as ΔTm values in °C. Measurements were performed in duplicates.

[2] = molecular target: T2, CDK14/Cyclin Y (Homo sapiens, UniProt O94921); assay: NanoBRET; assay type: cell-based; details: read-out: NanoBRET EC50 ± SEM CDK14/Cyclin Y
T2 construct: Full-length kinases were obtained as plasmids cloned in frame with a terminal NanoLuc-fusion; CS1810C178 (CCNY); host or cells: HEK293T
T2 sequence (O94921 whole entry, the tested form may be a part): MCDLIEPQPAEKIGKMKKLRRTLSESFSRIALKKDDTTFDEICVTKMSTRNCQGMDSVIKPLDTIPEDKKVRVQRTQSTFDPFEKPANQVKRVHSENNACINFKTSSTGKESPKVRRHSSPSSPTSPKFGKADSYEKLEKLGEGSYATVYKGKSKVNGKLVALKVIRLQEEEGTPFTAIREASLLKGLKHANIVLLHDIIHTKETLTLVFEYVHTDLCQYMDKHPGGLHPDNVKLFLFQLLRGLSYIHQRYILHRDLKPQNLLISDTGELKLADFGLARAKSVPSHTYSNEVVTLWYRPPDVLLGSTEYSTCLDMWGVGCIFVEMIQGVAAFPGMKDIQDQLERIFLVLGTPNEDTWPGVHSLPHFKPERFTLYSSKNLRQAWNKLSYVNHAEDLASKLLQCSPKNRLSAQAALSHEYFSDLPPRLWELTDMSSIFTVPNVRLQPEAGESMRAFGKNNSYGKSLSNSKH
T2 sequence (Q8ND76 2-341 partner limits assumed): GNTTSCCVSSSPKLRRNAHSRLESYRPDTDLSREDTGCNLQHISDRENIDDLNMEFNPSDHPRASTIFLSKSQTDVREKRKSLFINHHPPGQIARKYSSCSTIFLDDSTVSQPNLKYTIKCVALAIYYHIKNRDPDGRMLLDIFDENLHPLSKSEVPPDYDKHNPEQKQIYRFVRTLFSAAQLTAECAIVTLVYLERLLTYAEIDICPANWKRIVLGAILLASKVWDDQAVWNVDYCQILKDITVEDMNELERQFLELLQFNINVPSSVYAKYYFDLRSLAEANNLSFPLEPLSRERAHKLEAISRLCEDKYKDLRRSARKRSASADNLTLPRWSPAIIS
Method: (§1) The assay was performed as described previously. In brief: Full-length kinases were obtained as plasmids cloned in frame with a terminal NanoLuc-fusion (Promega, Madison, WI, USA), as specified in table (Table S6). Plasmids were transfected into HEK293T cells using FuGENE HD (Promega, E2312) and proteins were allowed to express for 20h. Serially diluted inhibitor and NanoBRET Kinase Tracer (Promega) at a concentration determined previously as the KD,app (Table S5) were pipetted into white 384-well plates (Greiner 781207) using an Echo acoustic dispenser (Labcyte, San Jose, CA, USA). The corresponding protein-transfected cells were added and reseeded at a density of 2.5 × 10^5 cells/mL after trypsinization and resuspending in Opti-MEM without phenol red (Life Technologies, Carlsbad, CA, USA). The system was allowed to equilibrate for 2 h at 37 °C/5% CO2 prior to BRET measurements. To measure BRET, NanoBRET NanoGlo Substrate + Extracellular NanoLuc Inhibitor (Promega, N2540) was added as per the manufacturer’s protocol, and filtered luminescence was measured on a PHERAstar plate reader (BMG Labtech, Ortenberg, Germany) equipped with a luminescence filter pair (450 nm BP filter (donor) and 610 nm LP filter (acceptor)). Competitive displacement data were then graphed using GraphPad Prism 9 software using a normalized 3-parameter curve fit with the following equation: Y = 100/(1 + 10^(X–LogEC50)).

[3] = molecular target: T3, CDK2/Cyclin A2 (Homo sapiens, UniProt P24941); assay: NanoBRET; assay type: cell-based; details: read-out: NanoBRET EC50 ± SEM CDK2/Cyclin A2
T3 construct: Full-length kinases were obtained as plasmids cloned in frame with a terminal NanoLuc-fusion; CCNA2: 'Promega', no number; host or cells: HEK293T
Method: as §1

[4] = molecular target: T4, CDK15/Cyclin Y (Homo sapiens, UniProt Q96Q40); assay: NanoBRET; assay type: cell-based; details: read-out: NanoBRET EC50 ± SEM CDK15/Cyclin Y
T4 construct: Full-length kinases were obtained as plasmids cloned in frame with a terminal NanoLuc-fusion; CS1810C178 (CCNY); host or cells: HEK293T
Method: as §1

[5] = molecular target: T5, CDK7 (Homo sapiens, UniProt P50613); assay: NanoBRET; assay type: cell-based; details: read-out: NanoBRET EC50 ± SEM CDK7
T5 construct: Full-length kinases were obtained as plasmids cloned in frame with a terminal NanoLuc-fusion; host or cells: HEK293T
T5 sequence (P50613 whole entry, the tested form may be a part): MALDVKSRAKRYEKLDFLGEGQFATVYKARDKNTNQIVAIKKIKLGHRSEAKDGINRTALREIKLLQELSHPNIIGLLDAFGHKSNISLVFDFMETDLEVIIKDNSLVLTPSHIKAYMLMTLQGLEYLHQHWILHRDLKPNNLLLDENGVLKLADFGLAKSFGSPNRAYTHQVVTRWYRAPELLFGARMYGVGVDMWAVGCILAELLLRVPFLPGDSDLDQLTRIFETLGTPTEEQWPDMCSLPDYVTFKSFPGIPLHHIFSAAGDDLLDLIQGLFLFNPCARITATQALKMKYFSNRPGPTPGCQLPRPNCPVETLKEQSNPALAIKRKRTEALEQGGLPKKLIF
Method: as §1

[6] = molecular target: T6, CDK4/Cyclin D3 (Homo sapiens, UniProt P11802); assay: NanoBRET; assay type: cell-based; details: read-out: NanoBRET EC50 ± SEM CDK4/Cyclin D3
T6 construct: Full-length kinases were obtained as plasmids cloned in frame with a terminal NanoLuc-fusion; CS1810C87 (CCND3); host or cells: HEK293T
Method: as §1

[7] = molecular target: CDK11B/Cyclin L2 (Homo sapiens, UniProt P21127); assay: NanoBRET; assay type: cell-based; details: read-out: NanoBRET EC50 ± SEM CDK11B/Cyclin L2
Method: as §1

[8] = molecular target: T7, CDK6/Cyclin D1 (Homo sapiens, UniProt Q00534); assay: NanoBRET; assay type: cell-based; details: read-out: NanoBRET EC50 ± SEM CDK6/Cyclin D1
T7 construct: Full-length kinases were obtained as plasmids cloned in frame with a terminal NanoLuc-fusion; CS1810C118 (CCND1); host or cells: HEK293T
T7 sequence (Q00534 whole entry, the tested form may be a part): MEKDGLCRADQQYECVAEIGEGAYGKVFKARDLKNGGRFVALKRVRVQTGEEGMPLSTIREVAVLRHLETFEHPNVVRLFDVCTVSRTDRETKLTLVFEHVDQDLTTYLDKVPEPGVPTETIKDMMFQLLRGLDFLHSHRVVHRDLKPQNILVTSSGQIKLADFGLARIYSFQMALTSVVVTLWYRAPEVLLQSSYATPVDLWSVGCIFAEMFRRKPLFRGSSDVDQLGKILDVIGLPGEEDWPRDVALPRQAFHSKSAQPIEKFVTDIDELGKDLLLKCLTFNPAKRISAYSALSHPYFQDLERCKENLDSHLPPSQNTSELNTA
T7 sequence (P24385 whole entry partner, the tested form may be a part): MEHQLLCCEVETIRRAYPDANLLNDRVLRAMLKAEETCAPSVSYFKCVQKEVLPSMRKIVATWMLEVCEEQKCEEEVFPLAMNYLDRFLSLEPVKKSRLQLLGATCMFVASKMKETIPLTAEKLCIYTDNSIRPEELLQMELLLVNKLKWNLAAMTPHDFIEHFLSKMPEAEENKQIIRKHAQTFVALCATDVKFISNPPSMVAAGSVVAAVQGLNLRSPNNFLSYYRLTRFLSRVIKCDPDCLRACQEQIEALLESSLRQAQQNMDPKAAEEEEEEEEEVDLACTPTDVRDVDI
Method: as §1

[9] = molecular target: T8, CDK3/Cyclin E2 (Homo sapiens, UniProt Q00526); assay: NanoBRET; assay type: cell-based; details: read-out: NanoBRET EC50 ± SEM CDK3/Cyclin E2
T8 construct: Full-length kinases were obtained as plasmids cloned in frame with a terminal NanoLuc-fusion; CCNE2: 'Promega', no number; host or cells: HEK293T
T8 sequence (Q00526 whole entry, the tested form may be a part): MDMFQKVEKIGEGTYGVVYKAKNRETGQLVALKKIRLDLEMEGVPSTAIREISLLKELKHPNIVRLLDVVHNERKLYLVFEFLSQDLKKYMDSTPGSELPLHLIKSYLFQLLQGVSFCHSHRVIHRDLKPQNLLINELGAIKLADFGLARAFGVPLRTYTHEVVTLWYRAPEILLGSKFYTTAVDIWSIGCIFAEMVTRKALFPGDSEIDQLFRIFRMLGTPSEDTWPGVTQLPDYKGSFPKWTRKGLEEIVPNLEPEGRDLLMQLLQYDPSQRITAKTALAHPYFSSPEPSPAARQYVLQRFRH
T8 sequence (O96020 whole entry partner, the tested form may be a part): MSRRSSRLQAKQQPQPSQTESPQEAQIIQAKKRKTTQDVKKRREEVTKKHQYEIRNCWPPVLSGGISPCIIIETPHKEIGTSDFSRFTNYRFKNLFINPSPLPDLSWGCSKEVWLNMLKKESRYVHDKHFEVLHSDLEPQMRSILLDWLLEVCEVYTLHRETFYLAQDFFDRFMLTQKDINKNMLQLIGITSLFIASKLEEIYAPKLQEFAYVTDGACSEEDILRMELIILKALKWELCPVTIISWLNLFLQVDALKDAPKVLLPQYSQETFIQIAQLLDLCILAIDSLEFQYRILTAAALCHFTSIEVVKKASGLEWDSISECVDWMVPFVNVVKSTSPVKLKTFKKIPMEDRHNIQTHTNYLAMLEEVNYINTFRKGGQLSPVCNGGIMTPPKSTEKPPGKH
Method: as §1

[10] = molecular target: CDK11B/Cyclin K (Homo sapiens, UniProt P21127); assay: NanoBRET; assay type: cell-based; details: read-out: NanoBRET EC50 ± SEM CDK11B/Cyclin K
Sequence of CDK11B/Cyclin K (P21127 whole entry): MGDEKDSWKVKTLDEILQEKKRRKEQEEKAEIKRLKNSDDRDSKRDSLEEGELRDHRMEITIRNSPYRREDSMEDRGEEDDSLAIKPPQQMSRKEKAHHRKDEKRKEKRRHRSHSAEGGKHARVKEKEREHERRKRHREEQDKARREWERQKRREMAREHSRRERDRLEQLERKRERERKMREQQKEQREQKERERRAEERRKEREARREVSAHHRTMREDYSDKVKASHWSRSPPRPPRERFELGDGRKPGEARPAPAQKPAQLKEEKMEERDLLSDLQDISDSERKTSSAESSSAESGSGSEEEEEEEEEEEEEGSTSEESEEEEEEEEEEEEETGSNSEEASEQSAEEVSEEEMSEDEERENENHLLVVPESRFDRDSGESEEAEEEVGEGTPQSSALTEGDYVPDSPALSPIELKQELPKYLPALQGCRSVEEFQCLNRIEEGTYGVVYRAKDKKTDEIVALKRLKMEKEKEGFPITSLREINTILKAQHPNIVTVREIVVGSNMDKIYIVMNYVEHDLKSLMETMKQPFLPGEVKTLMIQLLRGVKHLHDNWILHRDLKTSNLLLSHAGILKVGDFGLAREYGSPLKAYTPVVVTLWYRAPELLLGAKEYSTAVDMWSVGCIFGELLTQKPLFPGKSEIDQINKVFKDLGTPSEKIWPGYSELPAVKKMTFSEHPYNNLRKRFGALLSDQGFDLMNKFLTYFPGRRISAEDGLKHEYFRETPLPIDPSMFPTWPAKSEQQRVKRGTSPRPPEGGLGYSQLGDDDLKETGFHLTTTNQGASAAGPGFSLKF
Method: as §1

[11] = molecular target: T9, CDK9/Cyclin T1 (Homo sapiens, UniProt P50750); assay: NanoBRET; assay type: cell-based; details: read-out: NanoBRET EC50 ± SEM CDK9/Cyclin T1
T9 construct: Full-length kinases were obtained as plasmids cloned in frame with a terminal NanoLuc-fusion; CS1810C177 (CCNT1); host or cells: HEK293T
T9 sequence (P50750 whole entry, the tested form may be a part): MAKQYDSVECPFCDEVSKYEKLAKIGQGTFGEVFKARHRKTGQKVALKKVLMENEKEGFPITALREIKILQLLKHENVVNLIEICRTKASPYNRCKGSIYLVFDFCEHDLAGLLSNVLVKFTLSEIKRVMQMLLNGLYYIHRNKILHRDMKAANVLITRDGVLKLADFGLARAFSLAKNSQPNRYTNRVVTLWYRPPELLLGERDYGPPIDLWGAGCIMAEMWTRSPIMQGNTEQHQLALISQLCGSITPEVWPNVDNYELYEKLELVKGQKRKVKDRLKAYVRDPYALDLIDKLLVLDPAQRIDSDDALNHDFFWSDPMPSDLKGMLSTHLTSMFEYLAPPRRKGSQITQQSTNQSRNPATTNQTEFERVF
T9 sequence (O60563 whole entry partner, the tested form may be a part): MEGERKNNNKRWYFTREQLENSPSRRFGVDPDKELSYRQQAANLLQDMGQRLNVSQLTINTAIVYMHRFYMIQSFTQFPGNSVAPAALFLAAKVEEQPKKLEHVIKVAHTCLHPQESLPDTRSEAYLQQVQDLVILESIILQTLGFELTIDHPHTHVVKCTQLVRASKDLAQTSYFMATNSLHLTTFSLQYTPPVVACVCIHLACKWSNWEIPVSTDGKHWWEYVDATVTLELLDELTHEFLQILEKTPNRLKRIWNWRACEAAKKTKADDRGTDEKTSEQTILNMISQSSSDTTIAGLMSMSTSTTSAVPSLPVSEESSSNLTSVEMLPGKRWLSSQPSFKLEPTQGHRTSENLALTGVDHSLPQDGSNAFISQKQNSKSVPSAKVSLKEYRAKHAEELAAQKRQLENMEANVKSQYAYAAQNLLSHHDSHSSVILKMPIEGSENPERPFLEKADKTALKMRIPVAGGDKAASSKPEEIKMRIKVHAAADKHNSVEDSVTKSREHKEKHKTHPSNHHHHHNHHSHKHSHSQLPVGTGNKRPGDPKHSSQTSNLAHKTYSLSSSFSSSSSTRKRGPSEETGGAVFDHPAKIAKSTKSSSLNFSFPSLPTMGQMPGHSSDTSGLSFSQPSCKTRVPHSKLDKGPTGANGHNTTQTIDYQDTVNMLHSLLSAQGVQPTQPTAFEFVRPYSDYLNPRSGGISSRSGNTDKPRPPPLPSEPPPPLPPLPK
Method: as §1

[12] = molecular target: T10, CDK2/Cyclin E1 (Homo sapiens, UniProt P24941); assay: NanoBRET; assay type: cell-based; details: read-out: NanoBRET EC50 ± SEM CDK2/Cyclin E1
T10 construct: Full-length kinases were obtained as plasmids cloned in frame with a terminal NanoLuc-fusion; CS1810C171 (CCNE1); host or cells: HEK293T
Method: as §1

[13] = molecular target: T11, CDK11A/Cyclin K (Homo sapiens, UniProt Q9UQ88); assay: NanoBRET; assay type: cell-based; details: read-out: NanoBRET EC50 ± SEM CDK11A/Cyclin K
T11 sequence (Q9UQ88 1-783): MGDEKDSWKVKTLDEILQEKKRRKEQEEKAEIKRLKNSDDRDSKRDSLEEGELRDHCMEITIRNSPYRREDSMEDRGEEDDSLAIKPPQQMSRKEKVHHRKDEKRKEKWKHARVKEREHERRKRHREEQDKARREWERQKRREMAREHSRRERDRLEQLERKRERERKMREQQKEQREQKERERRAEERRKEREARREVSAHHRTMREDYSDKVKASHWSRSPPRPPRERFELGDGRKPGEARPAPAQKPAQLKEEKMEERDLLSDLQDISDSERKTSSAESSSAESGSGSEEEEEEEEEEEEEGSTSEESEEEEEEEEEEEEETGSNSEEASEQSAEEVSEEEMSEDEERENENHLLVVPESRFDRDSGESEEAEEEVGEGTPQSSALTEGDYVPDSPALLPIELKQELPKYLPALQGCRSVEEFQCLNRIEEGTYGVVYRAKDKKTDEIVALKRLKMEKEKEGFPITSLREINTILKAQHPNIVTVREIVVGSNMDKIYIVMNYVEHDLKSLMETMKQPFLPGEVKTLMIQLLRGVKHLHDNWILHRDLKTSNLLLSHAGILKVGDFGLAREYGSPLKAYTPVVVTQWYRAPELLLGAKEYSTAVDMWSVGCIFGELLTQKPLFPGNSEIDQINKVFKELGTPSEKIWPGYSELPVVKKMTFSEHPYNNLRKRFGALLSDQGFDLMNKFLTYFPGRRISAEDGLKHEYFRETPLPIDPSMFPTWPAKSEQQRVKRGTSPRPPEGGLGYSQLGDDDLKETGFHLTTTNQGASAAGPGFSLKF
Method: as §1

T1 sequence (Q9Y6E0 4-301): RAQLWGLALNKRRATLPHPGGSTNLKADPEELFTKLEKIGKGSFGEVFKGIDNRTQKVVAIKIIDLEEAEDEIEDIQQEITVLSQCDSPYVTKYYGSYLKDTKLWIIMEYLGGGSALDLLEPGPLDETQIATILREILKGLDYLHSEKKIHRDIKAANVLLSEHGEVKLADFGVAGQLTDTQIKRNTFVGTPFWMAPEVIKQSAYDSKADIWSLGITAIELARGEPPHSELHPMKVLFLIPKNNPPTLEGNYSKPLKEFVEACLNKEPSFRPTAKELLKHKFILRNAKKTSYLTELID

CC(C)OC(=O)c1cc(Nc2ccnc(NCc3ccc(NC(=O)OC(C)(C)C)cc3)n2)n[nH]1 [42d, isopropyl 3-((2-((4-((tert-butoxycarbonyl)amino)benzyl)amino)pyrimidin-4-yl)amino)-1H-pyrazole-5-carboxylate] was tested, and the “ΔTm MST3” value [1] was 0.8 °C, the EC50 [2] was 88.2 ± 48.8 nM and the EC50 [3] was 2840 ± 1350 nM. The EC50 [4] was 167 ± 14.9 nM, the EC50 [5] was 1140 ± 658 nM and the EC50 [6] was 508 ± 86.6 nM. It also gave an EC50 [7] of 2990 ± 1330 nM, an EC50 [8] of 959 ± 391 nM and an EC50 [9] of 26900 ± 13400 nM. The EC50 [10] was 3860 ± 1050 nM, the EC50 [11] was 408 ± 140 nM and the EC50 [12] was 2600 ± 914 nM. It also gave an EC50 [13] of 3100 ± 1350 nM.

For CC(C)(C)OC(=O)Nc1ccc(CNc2nccc(Nc3cc(C(=O)OC(C)(C)C)[nH]n3)n2)cc1 [43d, tert-butyl 3-((2-((4-((tert-butoxycarbonyl)amino)benzyl)amino)pyrimidin-4-yl)amino)-1H-pyrazole-5-carboxylate], the “ΔTm MST3” value [1] was -0.3 °C, the EC50 [2] was 72.1 nM and the EC50 [3] was 1520 ± 449 nM. For the same molecule, the EC50 [4] was 302 nM, the EC50 [5] was 1460 ± 552 nM and the EC50 [6] was 908 ± 113 nM. For the same molecule, the EC50 [7] was 3580 ± 1730 nM, the EC50 [8] was 1740 ± 206 nM and the EC50 [9] was 16100 ± 7620 nM. For the same molecule, the EC50 [10] was 7960 ± 3290 nM, the EC50 [11] was 805 ± 240 nM and the EC50 [12] was 1860 ± 582 nM. It also gave an EC50 [13] of 7980 ± 3740 nM.

With COC(=O)c1cc(Nc2ccnc(NCCOCCNC(=O)OC(C)(C)C)n2)[nH]n1 [21d, methyl 5-((2-((2-(2-((tert-butoxycarbonyl)amino)ethoxy)ethyl)amino)pyrimidin-4-yl)amino)-1H-pyrazole-3-carboxylate] the “ΔTm MST3” value [1] was -0.3 °C.

With N#CCc1ccc(Nc2nccc(Nc3cc(C4CC4)[nH]n3)n2)cc1 [compound 1, reference compound] the “ΔTm MST3” value [1] was 9.3 °C, the EC50 [2] was 33.7 ± 8.2 nM and the EC50 [3] was 28.1 ± 7.5 nM. For the same molecule, the EC50 [4] was 93.4 ± 41.7 nM, the EC50 [5] was 103 ± 43.2 nM and the EC50 [6] was 32.1 ± 3.1 nM. It also gave an EC50 [7] of 669 ± 406 nM, an EC50 [8] of 10.5 ± 3.8 nM and an EC50 [9] of 38.4 ± 30.4 nM. The EC50 [10] was 926 ± 649 nM, the EC50 [11] was 86.5 ± 10.9 nM and the EC50 [12] was 26.7 ± 6.3 nM. It also gave an EC50 [13] of 999 ± 476 nM.

In the case of COC(=O)c1cc(Nc2ccnc(NCc3ccc(NC(=O)OC(C)(C)C)cc3)n2)[nH]n1 [21i, methyl 5-((2-((4-((tert-butoxycarbonyl)amino)benzyl)amino)pyrimidin-4-yl)amino)-1H-pyrazole-3-carboxylate], the “ΔTm MST3” value [1] is reported as 0.1 °C, the EC50 [2] is reported as 1370 ± 374 nM and the EC50 [3] is reported as 11700 ± 2330 nM. It also gave an EC50 [4] of 2090 ± 496 nM, an EC50 [5] of 10400 ± 4770 nM and an EC50 [6] of 6780 ± 1460 nM. It also gave an EC50 [7] of 16700 ± 7890 nM, an EC50 [8] of 7450 ± 1740 nM and an EC50 [9] of 38800 ± 4640 nM. It also gave an EC50 [10] of 22900 ± 3740 nM, an EC50 [11] of 6870 ± 2190 nM and an EC50 [12] of 20900 ± 5690 nM. It also gave an EC50 [13] of 21100 ± 11000 nM.
